Series [1] has as its target Signal transducer and activator of transcription 3 (Homo sapiens) (UniProt P40763). Description: Inhibition of STAT3 Ser727 phosphorylation in human MDA-MB-468 cells at 5 and 10 uM incubated for 4 hrs by Western blot. The series is classed as cell-based. In general terms: Immunoblotting shows a protein as a band on a membrane.
Series [2] has the same target. Description: Inhibition of STAT3 Tyr705 phosphorylation in human MDA-MB-468 cells at 5 and 10 uM incubated for 4 hrs by Western blot. It counts as cell-based.
Series [3] deals with T1, Signal transducer and activator of transcription 1-alpha/beta (Homo sapiens) (UniProt P42224).
T1 sequence (whole entry): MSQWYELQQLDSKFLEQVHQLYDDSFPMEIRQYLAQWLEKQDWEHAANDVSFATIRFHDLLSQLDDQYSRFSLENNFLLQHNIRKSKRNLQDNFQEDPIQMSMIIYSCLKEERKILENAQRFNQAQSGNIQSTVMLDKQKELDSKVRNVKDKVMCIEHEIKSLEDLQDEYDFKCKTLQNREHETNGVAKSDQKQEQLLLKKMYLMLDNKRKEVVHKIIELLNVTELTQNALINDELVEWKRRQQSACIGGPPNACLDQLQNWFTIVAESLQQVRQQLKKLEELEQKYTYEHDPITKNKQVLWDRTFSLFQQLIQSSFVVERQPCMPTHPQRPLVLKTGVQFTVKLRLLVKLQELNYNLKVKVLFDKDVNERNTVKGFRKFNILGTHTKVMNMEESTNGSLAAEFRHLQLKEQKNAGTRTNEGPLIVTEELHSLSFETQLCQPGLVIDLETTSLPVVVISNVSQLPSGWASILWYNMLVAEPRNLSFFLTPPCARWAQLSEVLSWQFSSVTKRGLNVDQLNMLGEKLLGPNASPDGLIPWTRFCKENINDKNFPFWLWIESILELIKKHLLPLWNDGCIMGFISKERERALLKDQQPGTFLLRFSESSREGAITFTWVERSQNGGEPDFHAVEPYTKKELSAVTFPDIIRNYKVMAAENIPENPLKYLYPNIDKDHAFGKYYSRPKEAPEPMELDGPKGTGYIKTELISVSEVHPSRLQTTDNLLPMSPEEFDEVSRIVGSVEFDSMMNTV
The series is described as follows: Inhibition of STAT1 Tyr701 phosphorylation in human MDA-MB-468 cells at 5 and 10 uM incubated for 4 hrs by Western blot. It counts as cell-based.

For series [4], the system named is MDA-MB-468. Description: Effect on total STAT3 protein level in human MDA-MB-468 cells at 5 and 10 uM incubated for 4 hrs by Western blot. It counts as cell-based. The following applies: mda-mb-468, 4 h.
The nature of series [5]: Toxicity in human MDA-MB-468 cells assessed as cell viability at 5 uM incubated for 24 hrs by MTT assay (reference value: 100%). It counts as cell-based. As to conditions: read-out: Activity. (In general: Tetrazolium dyes change colour on reduction, which living cells bring about.)
In series [6] the target is Signal transducer and activator of transcription 3 (Homo sapiens) (UniProt P40763). Description: Inhibition of STAT3 transcriptional activity in human MDA-MB-468 cells at 5 uM incubated for 24 hrs by STAT3-dependent luciferase reporter assay. It counts as cell-based. (In general: A reporter such as luciferase makes a cellular process visible.)
In the next series the test system is MDA-MB-231. Description: Cytotoxic activity against human MDA-MB-231 cells incubated for 24 hrs by MTT assay. The series is classed as functional, cell-based. The following applies: MDA-MB-231, 24 h.
Series [7] deals with T2, Signal transducer and activator of transcription 5A (Homo sapiens) (UniProt P42229).
T2 sequence (whole entry): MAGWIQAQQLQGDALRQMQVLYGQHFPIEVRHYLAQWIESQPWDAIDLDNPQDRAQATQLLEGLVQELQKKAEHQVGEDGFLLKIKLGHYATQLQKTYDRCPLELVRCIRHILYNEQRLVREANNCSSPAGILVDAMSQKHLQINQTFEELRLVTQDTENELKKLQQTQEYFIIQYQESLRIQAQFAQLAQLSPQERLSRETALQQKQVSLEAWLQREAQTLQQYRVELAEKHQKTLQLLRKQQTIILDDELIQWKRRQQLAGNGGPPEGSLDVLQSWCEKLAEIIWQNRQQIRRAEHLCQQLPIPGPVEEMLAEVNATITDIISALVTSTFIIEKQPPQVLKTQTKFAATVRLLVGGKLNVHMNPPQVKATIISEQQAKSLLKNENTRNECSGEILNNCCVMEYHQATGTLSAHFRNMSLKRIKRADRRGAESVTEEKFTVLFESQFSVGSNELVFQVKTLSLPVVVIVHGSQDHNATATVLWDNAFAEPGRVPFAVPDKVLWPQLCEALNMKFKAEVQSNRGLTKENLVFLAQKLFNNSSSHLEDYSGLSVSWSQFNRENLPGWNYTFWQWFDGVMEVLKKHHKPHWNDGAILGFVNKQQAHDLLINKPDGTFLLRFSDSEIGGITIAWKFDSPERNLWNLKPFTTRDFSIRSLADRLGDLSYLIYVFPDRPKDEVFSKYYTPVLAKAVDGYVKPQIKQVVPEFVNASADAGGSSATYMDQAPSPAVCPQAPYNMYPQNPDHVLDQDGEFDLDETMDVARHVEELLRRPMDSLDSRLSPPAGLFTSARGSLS
Description: Inhibition of STAT5 Tyr694 phosphorylation in human MDA-MB-468 cells at 5 and 10 uM incubated for 4 hrs by Western blot. The series is classed as cell-based.

A further series has as its system BT-549. The series is described as follows: Cytotoxic activity against human BT549 cells incubated for 24 hrs by MTT assay. The series is classed as functional, cell-based. As to conditions: BT-549, 24 h.
Series [8] has as its system MDA-MB-468. Description: Cytotoxic activity against human MDA-MB-468 cells incubated for 24 hrs by MTT assay. It counts as functional, cell-based. As to conditions: MDA-MB-468, 24 h.
Series [9] in a line: Toxicity in human MDA-MB-468 cells assessed as cell viability at 10 uM incubated for 24 hrs by MTT assay (reference value: 100%). It counts as cell-based. The following applies: read-out: Activity.

Calls of active or inactive are those of the source. The calls are words filed in the database; no cut-off is given here.

Signal transducer and activator of transcription 3 (Homo sapiens), sequence (P40763 whole entry): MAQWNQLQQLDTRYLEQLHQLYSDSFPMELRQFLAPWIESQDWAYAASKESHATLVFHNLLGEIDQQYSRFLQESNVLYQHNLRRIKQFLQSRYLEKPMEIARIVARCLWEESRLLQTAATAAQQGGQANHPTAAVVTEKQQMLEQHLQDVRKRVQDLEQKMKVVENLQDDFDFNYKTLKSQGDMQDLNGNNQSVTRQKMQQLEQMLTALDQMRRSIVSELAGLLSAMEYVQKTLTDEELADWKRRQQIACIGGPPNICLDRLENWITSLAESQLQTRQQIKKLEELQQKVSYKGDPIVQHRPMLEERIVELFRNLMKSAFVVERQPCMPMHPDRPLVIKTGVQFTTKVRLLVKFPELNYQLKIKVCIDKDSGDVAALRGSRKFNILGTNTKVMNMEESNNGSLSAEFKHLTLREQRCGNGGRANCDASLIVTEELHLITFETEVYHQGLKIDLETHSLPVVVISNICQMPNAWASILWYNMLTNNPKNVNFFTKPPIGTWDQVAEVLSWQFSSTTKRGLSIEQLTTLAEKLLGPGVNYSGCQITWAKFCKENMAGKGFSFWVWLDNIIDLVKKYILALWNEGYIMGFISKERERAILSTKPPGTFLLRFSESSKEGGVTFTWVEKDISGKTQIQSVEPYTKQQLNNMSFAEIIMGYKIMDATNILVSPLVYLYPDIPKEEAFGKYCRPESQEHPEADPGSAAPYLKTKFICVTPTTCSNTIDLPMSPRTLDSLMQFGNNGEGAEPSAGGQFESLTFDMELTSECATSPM

On to `C[C@@H]1C=C2C(=O)O[C@@H]3CC[C@H](C1)[C@]23O`, for which the inhibition entry in series [1], in series [3] and in series [7] was “inactive” throughout. In addition, the inhibition result in series [2] was “Dose-dependent effect”. Also, the Activity result with MDA-MB-468 [4] is “Non-Toxic”. For the same compound, the viability at 24 h, 5 µM in series [5] amounted to 97%. For the same compound, the inhibition result in series [6] was “Active”. Also, the results for the IC50 in the series with MDA-MB-231, in the series on BT-549 and with MDA-MB-468 [8] were 16.9 µM, 12.7 µM and 17.5 µM, respectively. Besides, the viability at 24 h, 10 µM in series [9] came to 90%.

The term IC50 denotes the concentration needed to halve the response being measured. Read a high IC50 as weaker potency.
